According to patent publication US20110052674A1, “ANGIOTENSIN II RECEPTOR BLOCKER DERIVATIVES” (MERCK SHARP & DOHME CORP., priority 2008, published 2011):
Values after ≈ are worked out from the molar mass of the structure shown.

Tests used:
[1] = tested on: isolated rabbit thoracic aorta preparations; experiment: Studies on vascular tone: vasorelaxation in isolated rabbit thoracic aorta preparations; assay type: cell-based; details: vasorelaxation of rabbit aortic rings precontracted with noradrenaline 1 μM, functional endothelium; for EC50: Oryctolagus cuniculus, read-out: EC50 (μM) ± sem
Description: The ability of ARB nitroderivatives to induce vasorelaxation in comparison to native ARBs, was tested in vitro in isolated rabbit thoracic aorta preparations (Wanstall J. C. et al., Br. J. Pharmacol., 134:463-472, 2001). Male New Zealand rabbits were anaesthetized with thiopental-Na (50 mg/kg, iv), sacrificed by exsanguinations and then the thorax was opened and the aorta dissected. Aortic ring preparations (4 mm in length) were set up in physiological salt solution (PSS) at 37° C. in small organ chambers (5 ml). The composition of PSS was (mM): NaCl 130, NaHCO3 14.9, KH2PO4 1.2, MgSO4 1.2, HEPES 10, CaCl2, ascorbic acid […] and glucose […] (95% O2/5% CO2; pH 7.4). Each ring was mounted under 2 g passive tension. Isometric tension was recorded with a Grass transducer (Grass FT03) attached to a BIOPAC MP150 System. Preparations were allowed to equilibrate for 1 h, and then contracted submaximally with noradrenaline (NA, 1 μM) and, when the contraction was stable, acetylcholine (ACh, 10 μM) was added. A relaxant response to ACh indicated the presence of a functional endothelium. […] When a stable precontraction was reached, a cumulative concentration-response curve to either of the vasorelaxant agents was obtained in the presence of a functional endothelium. Each arterial ring was exposed to only one combination of inhibitor and vasorelaxant. Moreover, the effect of the soluble guanylyl cyclase inhibitor ODQ (1-H-(1,2,4)-oxadiazol(4,3-a)quinoxalin-1-one) on vasorelaxation elicited by the compounds was examined preincubating the aortic rings with ODQ (10 μM) for 20 min.
Responses to relaxing agents are expressed as a percentage of residual contraction and plotted against concentration of test compound. EC50 values (where EC50 is the concentration producing 50% of the maximum relaxation to the test compound) were interpolated from these plots. During the experimental period, the plateau obtained with NA was stable without significant spontaneous loss of contraction in the aortic rings.
Furthermore, in experiments performed in the presence of ODQ (10 μM), the vasorelaxant responses to tested compounds were inhibited.

[2] = Solubility test in PEG 400/H2O 7/3; assay type: physicochemical; details: PEG 400/H2O 7/3, aqueous with cosolvent or surfactant or cyclodextrin, thermodynamic from solid; PEG400/H2O 70:30, 5.0 mg in 1 ml, mixed 1 hour, filtered; read-out: Solubility PEG400/H2O 70:30 (mg/ml) target 5 mg/ml
Description: The solubility of the tested compounds in PEG 400/H2O 7/3 was evaluated using a standard curve constructed of six calibration points by plotting the peak areas of the compounds of the invention versus the concentration.
Test solution: 5.0 mg of the nitroderivative were dissolved in 0.7 ml of PEG 400 in a glass volumetric flask and 0.3 ml of water were added. The solution was mixed for 1 hour and filtered through 0.45 μm Acrodisc filter.

[3] = tested on: spontaneously hypertensive rats (SHRs); experiment: Antihypertensive activity in vivo in conscious spontaneously hypertensive rats; parameters: species or system rat; details: SHR, 10 mpk po single dose, delta vs baseline, telemetry (EXP 3174: tail-cuff method)
Description: The ability of the compounds of the invention to decrease blood pressure was evaluated in conscious spontaneously hypertensive rats (SHRs). SHRs (250-300 g) received a single oral dose of EXP 3174 or the corresponding nitroderivative. Systolic blood pressure (SBP) and heart rate were monitored by telemetry for 24 hours after dosing. SBP was evaluated before (baseline) and after (i.e. 6, 24 hours) treatment by oral administration of the compounds. The data were processed both as the absolute value or as a delta between the absolute value and its own baseline.
The Dataquest IV telemetry system (Data Sciences International) was used for measurement of systolic pressure, diastolic pressure, mean arterial pressure, heart rate, and motor activity. The monitoring system consists of a transmitter (radio frequency transducer model TA11PA), receiver panel, consolidation matrix, and personal computer with accompanying software. Before the device was implanted, calibrations were verified to be accurate within ±3 mmHg. Rats were anesthetized with ketamine/xylazine/acepromazine, and the flexible catheter of the transmitter was surgically secured in the abdominal aorta just below the renal arteries. The transmitter was sutured subcutaneously. Rats were housed in individual cages after the operation. Each cage was placed over the receiver panel that was connected to the personal computer for data acquisition. The rats were unrestrained and free to move within their cages. Hemodynamic data were sampled every 2 minutes for 10 seconds.

Row | SMILES | EC50 [1] [µM] | solubility at 1 h [2] [mg/mL] | Δ Systolic blood pressure (mmHg) 6 hrs [3] [mmHg] | Δ Systolic blood pressure (mmHg) 24 hrs [3] [mmHg] | EC50 (μM) ± sem [1]
1 | CCCCc1nc(Cl)c(C(=O)N[C@@H](CCCNC(=N)N)C(=O)OCCCCO[N+](=O)[O-])n1Cc1ccc(-c2ccccc2-c2nn[nH]n2)cc1 [EX. 13, (S)-4-(nitrooxy)butyl 2-(1-((2′-(2H-tetrazol-5-yl)biphenyl-4-yl)methyl)-2-butyl-4-chloro-1H-imidazole-5-carboxamido)-5-guanidinopentanoate] | 30.6 ± 4.7 | – | – | – | –
2 | CCCCc1nc(Cl)c(COC(=O)NCCOC(=O)CCCO[N+](=O)[O-])n1Cc1ccc(-c2ccccc2-c2nnn[nH]2)cc1 [EX. 1, 2-(((1-((2′-(1H-tetrazol-5-yl)biphenyl-4-yl)methyl)-2-butyl-4-chloro-1H-imidazol-5-yl)methoxy)carbonylamino)ethyl 4-(nitrooxy)butanoate] | 23.6 ± 3.9 | 4 (≈ 6.24 mM) | – | – | –
3 | CCCCc1nc(Cl)c(C(=O)N[C@@H](Cc2ccccc2)C(=O)OCCCCO[N+](=O)[O-])n1Cc1ccc(-c2ccccc2-c2nnn[nH]2)cc1 [EX. 6] | 14.2 ± 8 | > 5 | −12 | −13 | –
4 | CCOc1nc2cccc(C(=O)O)c2n1Cc1ccc(-c2ccccc2-c2nnn[nH]2)cc1 [Candesartan, reference compound] | – | – | – | – | no effect
5 | CCCCc1nc(Cl)c(C(=O)NCC(=O)OCc2ccc(CO[N+](=O)[O-])cc2)n1Cc1ccc(-c2ccccc2-c2nnn[nH]2)cc1 [(46), 4-(nitrooxymethyl)benzyl 2-(1-((2′-(2H-tetrazol-5-yl)biphenyl-4-yl)methyl)-2-butyl-4-chloro-1H-imidazole-5-carboxamido)acetate] | – | 5.07 (≈ 7.69 mM) | – | – | –
6 | CCCCc1nc(Cl)c(COC(=O)N[C@H](COC(=O)CCCO[N+](=O)[O-])Cc2ccccc2)n1Cc1ccc(-c2ccccc2-c2nnn[nH]2)cc1 [EX. 2, (S)-2-(((1-((2′-(1H-tetrazol-5-yl)biphenyl-4-yl)methyl)-2-butyl-4-chloro-1H-imidazol-5-yl)methoxy)carbonylamino)-3-phenylpropyl 4-(nitrooxy)butanoate] | 40.1 ± 2.7 | > 5 | – | – | –
7 | CCCCc1nc(Cl)c(C(=O)N[C@@H](CCC(=O)OCCCCO[N+](=O)[O-])C(=O)OCCCCO[N+](=O)[O-])n1Cc1ccc(-c2ccccc2-c2nn[nH]n2)cc1 [EX. 10] | 5.4 ± 1.8 | – | −6 | −11 | –
8 | CCCCc1nc(Cl)c(COC(=O)N[C@@H](CCCCN)C(=O)OCCCCO[N+](=O)[O-])n1Cc1ccc(-c2ccccc2-c2nnn[nH]2)cc1 [EX. 4, 4-(nitrooxy)butyl 2-(((1-((2′-(1H-tetrazol-5-yl)biphenyl-4-yl)methyl)-2-butyl-4-chloro-1H-imidazol-5-yl)methoxy)carbonylamino)-6-aminohexanoate] | 46 ± 7.2 | – | – | – | –
9 | CCCCc1nc(Cl)c(C(=O)N[C@@H](CC(=O)OCCCCO[N+](=O)[O-])C(=O)OCCCCO[N+](=O)[O-])n1Cc1ccc(-c2ccccc2-c2nn[nH]n2)cc1 [EX. 8, (S)-bis(4-(nitrooxy)butyl) 2-(1-((2′-(2H-tetrazol-5-yl)biphenyl-4-yl)methyl)-2-butyl-4-chloro-1H-imidazole-5-carboxamido)succinate] | 10.4 ± 2.5 | – | – | – | –
10 | CCCCc1nc(Cl)c(COC(=O)NCC(=O)OCCCCO[N+](=O)[O-])n1Cc1ccc(-c2ccccc2-c2nnn[nH]2)cc1 [EX. 3, 4-(nitrooxy)butyl 2-(((1-((2′-(1H-tetrazol-5-yl)biphenyl-4-yl)methyl)-2-butyl-4-chloro-1H-imidazol-5-yl)methoxy)carbonylamino)acetate] | 9.2 ± 4.1 | > 5 | – | – | –
11 | CCCCc1nc(Cl)c(C(=O)NCC(=O)NCCCCO[N+](=O)[O-])n1Cc1ccc(-c2ccccc2-c2nnn[nH]2)cc1 [EX. 11, 4-(2-(1-((2′-(1H-tetrazol-5-yl)biphenyl-4-yl)methyl)-2-butyl-4-chloro-1H-imidazole-5-carboxamido)acetamido)butyl nitrate] | 38.7 ± 5.3 | 4.6 | −6 | −17 | –
12 | CCCCc1nc(Cl)c(C(=O)O)n1Cc1ccc(-c2ccccc2-c2nn[nH]n2)cc1 [EXP 3174, 2-butyl-4-chloro-1-{[2′-(1H-tetrazol-5-yl)biphenyl-4-yl]methyl}-1H-imidazole-5-carboxylic acid, reference compound] | – | – | −5 | 2 | no effect
13 | CCCCc1nc(Cl)c(C(=O)N2CCC[C@H]2C(=O)OCCCCO[N+](=O)[O-])n1Cc1ccc(-c2ccccc2-c2nn[nH]n2)cc1 [EX. 7, (S)-4-(nitrooxy)butyl 1-(1-((2′-(2H-tetrazol-5-yl)biphenyl-4-yl)methyl)-2-butyl-4-chloro-1H-imidazole-5-carbonyl)pyrrolidine-2-carboxylate] | 7.1 ± 1.9 | > 5 | – | – | –
14 | CCCCc1nc(Cl)c(C(=O)NCC(=O)OCCCCO[N+](=O)[O-])n1Cc1ccc(-c2ccccc2-c2nnn[nH]2)cc1 [EX. 5, 4-(Nitrooxy)butyl 2-(1-((2′-(1H-tetrazol-5-yl)biphenyl-4-yl)methyl)-2-butyl-4-chloro-1H-imidazole-5-carboxamido)acetate] | 9.2 ± 2.5 | 4.2 (≈ 6.87 mM) | −7 | −11 | –
15 | CCCCc1nc(Cl)c(C(=O)N[C@@H](Cc2ccccc2)C(=O)OCCCCC(CO[N+](=O)[O-])O[N+](=O)[O-])n1Cc1ccc(-c2ccccc2-c2nnn[nH]2)cc1 (stereo in doubt) [EX. 9, (S)-(5,6-bis(nitrooxy)hexyl) 2-(1-((2′-(1H-tetrazol-5-yl)biphenyl-4-yl)methyl)-2-butyl-4-chloro-1H-imidazole-5-carboxamido)-3-phenylpropanoate] | 3.4 ± 0.8 | 4.9 (≈ 6.2 mM) | – | – | –
16 | CCCCc1nc(Cl)c(CO)n1Cc1ccc(-c2ccccc2-c2nn[nH]n2)cc1 [Losartan, reference compound] | – | – | – | – | no effect
